# Laboratory results published in ChEMBL document CHEMBL1201862, “PubChem BioAssay data set” (2004).
#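 Growth conditions: 96-well plates. Treatment: test compound, 48 hours, 5 concentrations. Analysis: linear interpolation between bracketing concentrations; unreached endpoints set to highest concentration. The concentration for 50% growth inhibition is given as GI50.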 Activity calls are given as the source filed them. Rule as the data show it: active = GI50 up to about 1.1 µM and inactive = higher.
# What was measured:
# Assay in all cases: NCI-60 cell line screen, 48 h
# NCI-H226 = system: NCI-H226
# HCT-116 = system: HCT-116
# SF-539 = system: SF-539
# XF498 = system: XF498
# SNB-75 = system: SNB-75
# SNB-19 = system: SNB-19
# MDA-N = system: MDA-N
# CCRF-CEM = system: CCRF-CEM
# RPMI-8226 = system: RPMI-8226
# A498 = system: A498
# HOP-62 = system: HOP-62
# NCI-H460 = system: NCI-H460
# NCI-H522 = system: NCI-H522
# UO-31 = system: UO-31
# TK-10 = system: TK-10
# KM12 = system: KM12
# Hs-578T = system: Hs-578T
# SK-MEL-5 = system: SK-MEL-5
# Malme-3M = system: Malme-3M
# NCI/ADR-RES = system: NCI/ADR-RES
# COLO 205 = system: COLO 205
# K562 = system: K562
# SK-MEL-28 = system: SK-MEL-28
# DMS-273 = system: DMS-273
# MDA-MB-231 = system: MDA-MB-231
# UACC-62 = system: UACC-62
# NCI-H23 = system: NCI-H23
# SN12C = system: SN12C
# M14 = system: M14
# SF-268 = system: SF-268
# DLD-1 = system: DLD-1
# SNB-78 = system: SNB-78
# A549 = system: A549
# DMS-114 = system: DMS-114
# ACHN = system: ACHN
# OVCAR-3 = system: OVCAR-3
# OVCAR-8 = system: OVCAR-8
# IGROV-1 = system: IGROV-1
# HT-29 = system: HT-29
# U-251 = system: U-251
# RXF 393 = system: RXF 393
# SW-620 = system: SW-620
# DU-145 = system: DU-145
# 786-0 = system: 786-0
# OVCAR-4 = system: OVCAR-4
# HCC 2998 = system: HCC 2998
# HOP-92 = system: HOP-92
# EKVX = system: EKVX
# LOX IMVI = system: LOX IMVI
# SK-OV-3 = system: SK-OV-3
# SR = system: SR
# HOP-18 = system: HOP-18
# PC-3 = system: PC-3
# UACC-257 = system: UACC-257
# MDA-MB-435 = system: MDA-MB-435
# T47D = system: T47D
# SF-295 = system: SF-295
# OVCAR-5 = system: OVCAR-5
# HCT-15 = system: HCT-15
# SK-MEL-2 = system: SK-MEL-2
# HL-60 = system: HL-60
# BT-549 = system: BT-549
# MCF7 = system: MCF7
# CAKI-1 = system: CAKI-1
# MOLT-4 = system: MOLT-4
# LXFL 529 = system: LXFL 529
# KM-20L2 = system: KM-20L2
structure (smiles),measurement,setting,value
Clc1ccc(-c2c(C3=NCCCN3)nnn2-c2ccc(Cl)cc2)cc1,GI50,NCI-H226,60.3 µM (inactive)
same,GI50,HCT-116,28.9 µM (inactive)
same,GI50,SF-539,31.4 µM (inactive)
same,GI50,XF498,22.6 µM (inactive)
same,GI50,SNB-75,29.8 µM (inactive)
same,GI50,SNB-19,> 68.7 µM (inactive)
same,GI50,MDA-N,19.1 µM (inactive)
same,GI50,CCRF-CEM,31.8 µM (inactive)
same,GI50,RPMI-8226,31.4 µM (inactive)
same,GI50,A498,29.4 µM (inactive)
same,GI50,HOP-62,55.5 µM (inactive)
same,GI50,NCI-H460,40.9 µM (inactive)
same,GI50,NCI-H522,32.9 µM (inactive)
same,GI50,UO-31,39.1 µM (inactive)
same,GI50,TK-10,40 µM (inactive)
same,GI50,KM12,57.4 µM (inactive)
same,GI50,Hs-578T,26.9 µM (inactive)
same,GI50,SK-MEL-5,17.7 µM (inactive)
same,GI50,Malme-3M,17.8 µM (inactive)
same,GI50,NCI/ADR-RES,> 50.6 µM (inactive)
same,GI50,COLO 205,16.6 µM (inactive)
same,GI50,K562,20.9 µM (inactive)
same,GI50,SK-MEL-28,17.1 µM (inactive)
same,GI50,DMS-273,60.5 µM (inactive)
same,GI50,MDA-MB-231,> 48.2 µM (inactive)
same,GI50,UACC-62,18.5 µM (inactive)
same,GI50,NCI-H23,> 79.1 µM (inactive)
same,GI50,SN12C,64 µM (inactive)
same,GI50,M14,16.7 µM (inactive)
same,GI50,SF-268,48.8 µM (inactive)
same,GI50,DLD-1,> 68.9 µM (inactive)
same,GI50,SNB-78,43.6 µM (inactive)
same,GI50,A549,> 76 µM (inactive)
same,GI50,DMS-114,21.7 µM (inactive)
same,GI50,ACHN,> 78.2 µM (inactive)
same,GI50,OVCAR-3,> 78.7 µM (inactive)
same,GI50,OVCAR-8,> 70.3 µM (inactive)
same,GI50,IGROV-1,56 µM (inactive)
same,GI50,HT-29,21.3 µM (inactive)
same,GI50,U-251,49.8 µM (inactive)
same,GI50,RXF 393,17.7 µM (inactive)
same,GI50,SW-620,49.8 µM (inactive)
same,GI50,DU-145,> 91.2 µM (inactive)
same,GI50,786-0,40.9 µM (inactive)
same,GI50,OVCAR-4,> 65.2 µM (inactive)
same,GI50,HCC 2998,18.2 µM (inactive)
same,GI50,HOP-92,22.8 µM (inactive)
same,GI50,EKVX,63.1 µM (inactive)
same,GI50,LOX IMVI,21.1 µM (inactive)
same,GI50,SK-OV-3,> 76.6 µM (inactive)
same,GI50,SR,15.7 µM (inactive)
same,GI50,HOP-18,> 100 µM (inactive)
same,GI50,PC-3,31.1 µM (inactive)
same,GI50,UACC-257,22.3 µM (inactive)
same,GI50,MDA-MB-435,19.2 µM (inactive)
same,GI50,T47D,31.3 µM (inactive)
same,GI50,SF-295,34.7 µM (inactive)
same,GI50,OVCAR-5,35.3 µM (inactive)
same,GI50,HCT-15,75.5 µM
same,GI50,SK-MEL-2,17.4 µM (inactive)
same,GI50,HL-60,17.5 µM (inactive)
same,GI50,BT-549,> 55.1 µM (inactive)
same,GI50,MCF7,26.8 µM (inactive)
same,GI50,CAKI-1,60.1 µM (inactive)
same,GI50,MOLT-4,27.4 µM (inactive)
same,GI50,LXFL 529,29 µM (inactive)
same,GI50,KM-20L2,29.5 µM (inactive)
